Patent publication US20240391954A1, “MC4R AGONIST PEPTIDES” (The Regents of the University of Michigan, priority 2021, published 2024)
Positions of bridges follow the written chain, without caps; N, C: chain ends. Non-standard residues stand in square brackets, D forms with d. Residues, ends and D or L forms follow the SMILES beside them. Nle = CCCC[C@H](N)C(=O)O

What was measured:
[1] = target: T1, human MC1R (Homo sapiens, UniProt Q01726); assay: split-luciferase cAMP sensor assay, agonist mode, hMC1R; format: cell-based; details: MC4R versus MC1R
T1 construct: expressed in transfected cells; host or cells: HEK-293 cells stably expressing hMC1R and the GScAMP22F cAMP sensor
T1 sequence (Q01726 whole entry): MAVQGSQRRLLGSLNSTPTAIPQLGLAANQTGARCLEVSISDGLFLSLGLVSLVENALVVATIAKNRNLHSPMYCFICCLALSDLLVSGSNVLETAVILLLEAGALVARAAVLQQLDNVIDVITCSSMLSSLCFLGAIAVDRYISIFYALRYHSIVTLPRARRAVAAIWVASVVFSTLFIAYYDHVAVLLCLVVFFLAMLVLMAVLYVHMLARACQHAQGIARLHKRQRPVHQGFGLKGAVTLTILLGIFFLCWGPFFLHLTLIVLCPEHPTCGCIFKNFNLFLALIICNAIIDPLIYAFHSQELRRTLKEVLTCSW
Outline: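 HEK-293 cells stably expressing hMC1R and the GScAMP22F split-luciferase cAMP sensor, preloaded 120 min at 37° C with D-luciferin in serum-free medium. Peptide responses were taken as peak luminescence over 2-13 min minus 2-min baseline, normalized to the α-MSH ECmax. EC50 was obtained from a four-parameter variable-slope fit.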

[2] = target: T2, human MC4R (Homo sapiens, UniProt P32245); assay: split-luciferase cAMP sensor assay, agonist mode (measurement window 1), hMC4R; format: cell-based; details: % maximal activation, agonist mode; read-out: MC4R cAMP % max activation
T2 construct: host or cells: HEK-293 cells stably expressing the GScAMP22F split-luciferase cAMP sensor and hMC4R, G418 selection
T2 sequence (P32245 whole entry): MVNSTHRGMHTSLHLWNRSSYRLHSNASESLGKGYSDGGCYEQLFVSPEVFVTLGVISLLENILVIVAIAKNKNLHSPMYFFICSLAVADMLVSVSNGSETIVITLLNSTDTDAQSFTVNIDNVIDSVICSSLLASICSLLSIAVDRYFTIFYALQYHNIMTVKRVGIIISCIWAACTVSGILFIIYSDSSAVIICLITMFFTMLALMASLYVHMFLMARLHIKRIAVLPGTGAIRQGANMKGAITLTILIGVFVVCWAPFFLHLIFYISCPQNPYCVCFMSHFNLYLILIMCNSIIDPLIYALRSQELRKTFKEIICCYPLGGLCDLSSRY
Outline: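 Live stable cell lines carrying receptor plus GloSensor cAMP22f split-luciferase, loaded with 4% D-luciferin in serum-free medium (~1% serum estimated during assay). Luminescence recorded during in-line peptide addition; direct agonist effect read in window 1, with 20 μM forskolin as normalization reference. EC50 from four-parameter sigmoid fit.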

Question: What does the source list for CCCC[C@H](NC(=O)[C@H](CCCNC(=N)N)NC(C)=O)C(=O)N[C@H]1CSSC[C@@H](C(N)=O)NC(=O)[C@H](Cc2c[nH]c3ccccc23)NC(=O)[C@H](CCCNC(=N)N)NC(=O)[C@@H](Cc2ccccc2)NC(=O)[C@H](Cc2c[nH]cn2)NC1=O [CTX-1227, Arg-Nle-cyclo(Cys-His-D-Phe-Arg-Trp-Cys)] (Ac-R[Nle]CH[dF]RWC-NH2; disulfide 3-8 (inferred))?
Answer: MC4R selectivity vs MC1R [1]: 0.92; Emax [2]: 103%
